Target: T1, DNA repair protein RAD51 homolog 1 (Homo sapiens, UniProt Q06609)
T1 sequence (Q06609 whole entry): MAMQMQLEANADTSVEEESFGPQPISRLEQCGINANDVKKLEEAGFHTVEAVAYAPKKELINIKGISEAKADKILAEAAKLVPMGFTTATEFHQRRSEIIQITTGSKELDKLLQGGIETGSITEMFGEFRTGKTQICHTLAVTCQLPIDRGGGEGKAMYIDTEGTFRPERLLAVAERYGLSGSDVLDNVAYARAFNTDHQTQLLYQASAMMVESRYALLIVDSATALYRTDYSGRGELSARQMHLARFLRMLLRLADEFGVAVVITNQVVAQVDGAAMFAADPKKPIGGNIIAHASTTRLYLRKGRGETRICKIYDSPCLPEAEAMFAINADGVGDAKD
Experiment: RAD51 recombination inhibitor potency, dose response, biochemical, homologous recombination, fluorescence (AID 1435)

**Q.** For `COC(=O)COc1ccc(S(=O)(=O)NCCC2=CCCCC2)cc1C` [methyl [4-({[2-(1-cyclohexen-1-yl)ethyl]amino}sulfonyl)-2-methylphenoxy]acetate], which IC50 is on record?
**A.** > 85 µM

From BindingDB's records for doi:10.7270/Q2BV7F1T (Pcmd, 2008)
